Test results published in US10358500B2, “Humanized antibodies that bind LGR5” (Bionomics Inc., priority 2014, dated 2019).

Columns and labels:
[1] = system: LGR5; assay: LGR5 expression in treated pancreatic cell lines by flow cytometry; format: cell-based
Experimental: In addition to CRC cell lines to further expand the above findings, expression of LGR5 was investigated in a series of pancreatic cell lines treated with relevant standard of care including nab-paclitaxel, gemcitabine and taxol and also small molecule inhibitors targeting most relevant pathways in pancreatic cancer such as inhibitors of PI3K, MEK and GSK3β. The pancreatic cell lines that were tested include: AsPc1, HPAFII, PANC1, BxPC3, CFPAC, PANC10.05, Capan2 and SW1990.

[2] = system: PANC1 cancer stem cells; assay: limiting dilution re-implant of treated PANC1 tumors; format: in vivo, mice; conditions: gemcitabine alone
Excerpt: Tumors cells from these treatment groups were harvested, dissociated, pooled and re-implanted in a limiting dilution assay (500, 1500, 4500 or 13500 cells/animal) into a new cohort of CB.17 SCID mice and allowed to grow with no treatment.

[3] = system: AsPC-1 cancer stem cells; assay: limiting dilution experiment, AsPC-1 tumors; format: in vivo, mice; conditions: day 40 post treatment, gemcitabine single agent
[4] = system: LGR5; assay: LGR5 expression in treated CRC cell lines by flow cytometry; format: cell-based; conditions: 1 um, 72 hrs
Experimental: A panel of CRC cell lines including DLD1, HCT116, LS174t, LoVo, SW48, SW480 and SW620 were treated with a PI3K/mTOR dual inhibitor (NVP) or 2 different cytotoxic agents including SN38 (active metabolite of Irinotecan) or 5FU (5 fluorouracil). Cells were treated with the above agents at 1 um and were harvested after 72 hrs. Cells were then stained with anti-LGR5 Mab conjugated to Alexa Fluor647 and the data were analyzed by flow cytometry using a FACScalibur.

Nc1ccn([C@@H]2O[C@H](CO)[C@@H](O)C2(F)F)c(=O)n1 [gemcitabine, reference compound]
LGR5 expression by flow cytometry ([1]; PANC1): upregulates LGR5
frequency of engraftment ([2]; PANC1, 4500 cells): 40%
frequency of engraftment ([2]; PANC1, 13500 cells): 100%
percentage of tumor bearing mice ([3]; AsPC-1, 4500 cells): 40%
percentage of tumor bearing mice ([3]; AsPC-1, 13500 cells): 80%

O=c1[nH]cc(F)c(=O)[nH]1 [5FU, 5 fluorouracil]
LGR5 expression by flow cytometry ([4]; any of the CRC lines (DLD1, HCT116, LS174t, LoVo, SW48, SW480, SW620)): did not induce LGR5 expression

CCc1c2c(nc3ccc(O)cc13)-c1cc3c(c(=O)n1C2)COC(=O)[C@]3(O)CC [SN38]
LGR5 expression by flow cytometry ([4]; HCT116, LS174t, SW48, SW480 and especially SW620 cells): promoted LGR5 expression

CC(=O)O[C@H]1C(=O)[C@@]2(C)[C@H]([C@H](OC(=O)c3ccccc3)[C@]3(O)C[C@H](OC(=O)[C@H](O)[C@@H](NC(=O)c4ccccc4)c4ccccc4)C(C)=C1C3(C)C)[C@]1(OC(C)=O)CO[C@@H]1C[C@@H]2O [taxol]
LGR5 expression by flow cytometry ([1]; HPAFII): increased LGR5 expression
